# From PMC5517026, “Crystal structure and functional characterization of an isoaspartyl dipeptidase (CpsIadA) from Colwellia psychrerythraea strain 34H” (PLoS ONE, 2017)
# Where a SMILES comes first, the peptide text is derived from it.
# What was measured:
# CpsIadA [1] = target: T1, CpsIadA (Colwellia psychrerythraea, UniProt Q484B6); assay: coupled spectrophotometric assay (aspartate aminotransferase/malate dehydrogenase, NADH at […] nm); assay type: biochemical; settings: 100 mM HEPES pH 8.0, 100 mM KCl, 30°C
# T1 construct: gene iadA; Ni-NTA and gel filtration; homo-octamer (314 kDa by AUC), two Zn ions per active site
# [2] = target: CpsIadA E80Q mutant (Colwellia psychrerythraea strain 34H) (UniProt Q484B6); assay: crystal structure; CpsIadA E80Q mutant with 5 mM β-aspartyl lysine, 2.33 Å, space group P4212, two monomers in the asymmetric unit; 0.1 M Bis-Tris propane pH 7.0, 1 M ammonium citrate tribasic pH 7.0, 293 K
# CpsIadA [3] = target: T1, CpsIadA; assay: coupled assay with L-alanine dehydrogenase/diaphorase, INT reduction at […] nm; assay type: biochemical; settings: 100 mM HEPES pH 8.0, 1.5 mM INT, 1.5 mM NAD+, 30°C
# [4] = target: isoaspartyl dipeptidase from Colwellia psychrerythraea strain 34H (CpsIadA), wild type (Colwellia psychrerythraea strain 34H) (UniProt Q484B6); assay: crystal structure; ligand-free wild type CpsIadA, 1.85 Å, space group P4212, two monomers in the asymmetric unit; 0.1 M Bis-Tris propane pH 7.0, 1.4 M sodium malonate, 293 K
# [5] = target: isoaspartyl dipeptidase from Colwellia psychrerythraea strain 34H (CpsIadA), wild type (Colwellia psychrerythraea strain 34H) (UniProt Q484B6); assay: AUC; sedimentation velocity, 20°C, 0.5 mg/mL CpsIadA, 25 mM Tris-HCl pH 8.0, 200 mM NaCl, 5 mM MgCl2, 2 mM dithiothreitol, 45,000 rpm, SEDFIT; self-association (octamer)
# [6] = target: isoaspartyl dipeptidase from Colwellia psychrerythraea strain 34H (CpsIadA), wild type (Colwellia psychrerythraea strain 34H) (UniProt Q484B6); assay: SEC; analytical size-exclusion chromatography; conditions not given; self-association (octamer)
# CpsIadA [7] = target: T2, CpsIadA (Colwellia psychrerythraea, UniProt Q484B6, E80Q, form not given); assay: X-ray crystal structure of the complex ([…] Å); assay type: binding; settings: active site, two Zn ions; 5 mM ligand added before crystallization; catalytically inactive mutant
# T2 construct: gene iadA; Ni-NTA and gel filtration; homo-octamer (314 kDa by AUC), two Zn ions per active site
# T2 sequence (Q484B6 entry or part of it E80Q, form open): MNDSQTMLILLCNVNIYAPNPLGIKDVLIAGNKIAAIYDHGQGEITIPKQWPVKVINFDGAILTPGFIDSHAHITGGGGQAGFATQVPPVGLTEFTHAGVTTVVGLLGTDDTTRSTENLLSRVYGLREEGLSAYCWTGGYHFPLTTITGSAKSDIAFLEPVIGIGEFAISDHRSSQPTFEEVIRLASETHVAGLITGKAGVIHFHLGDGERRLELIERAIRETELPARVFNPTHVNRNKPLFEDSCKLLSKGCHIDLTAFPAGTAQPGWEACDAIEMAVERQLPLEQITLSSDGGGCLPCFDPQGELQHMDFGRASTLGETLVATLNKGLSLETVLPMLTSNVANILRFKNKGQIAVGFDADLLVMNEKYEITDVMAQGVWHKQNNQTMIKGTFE
# T1 sequence (Q484B6 entry or part of it): as the sequence (Q484B6 entry or part of it E80Q, form open) above, with Q80E counted along it
Compound,Km (CpsIadA [1]) [µM],further results
N[C@@H](CC(=O)N[C@@H](Cc1ccccc1)C(=O)O)C(=O)O [β-Asp-Phe],490 ± 90,
CpsIadA E80Q mutant (from UniProt Q484B6 1-395) (enzyme),,stoichiometry N [2]: 8
C[C@H](NC(=O)C[C@H](N)C(=O)O)C(=O)O [β-Asp-Ala],1200 ± 300,
CC(C)C[C@H](NC(=O)C[C@H](N)C(=O)O)C(=O)O [β-Asp-Leu],710 ± 80,
N[C@@H](CC(=O)NCC(=O)O)C(=O)O [β-Asp-Gly],4700 ± 400,
C[C@H](NC(=O)CCN)C(=O)O [β-Ala-Ala],,Km (CpsIadA [3]): 930 ± 300 µM
CC(C)C[C@H](NC(=O)[C@@H](N)CC(=O)O)C(=O)O [α-Asp-Leu] (H-Asp-Leu-OH),6900 ± 400,
"isoaspartyl dipeptidase from Colwellia psychrerythraea strain 34H (CpsIadA), wild type (from UniProt Q484B6 1-395) (enzyme)",,stoichiometry N [4]: 8; stoichiometry N [5]: 8; stoichiometry N [6]: 8
NCCCC[C@H](NC(=O)C[C@H](N)C(=O)O)C(=O)O [β-Asp-Lys],1100 ± 90,X-ray crystal structure of the complex (2.33 Å) (CpsIadA [7]): β-isoaspartyl lysine bound CpsIadA E80Q mutant have been deposited in the Protein Data Bank
N[C@@H](CC(=O)N[C@@H](Cc1c[nH]cn1)C(=O)O)C(=O)O [β-Asp-His],5300 ± 500,
